Assay results reported in patent US6403605B1, “Methods for the normalization of sexual response and amelioration of long term genital tissue degradation” (Queen's University at Kingston, priority 1998, dated 2002).

Key:
[1] = system: female rats; experiment: Studies with female rats: sexual arousal behaviors; type: in vivo, rat; conditions: female rats treated with combination of apomorphine and low doses of testosterone
Excerpt: When co-administration of an androgen is utilized in this method of the invention, the androgen is given is doses sufficient to produce plasma concentrations of about 1 nmol/L to 200 nmol/L.

[2] = Pharmacokinetic evaluation of apomorphine (FIG. 1, mean plasma concentrations after sub-cutaneous and sublingual doses)
[3] = system: patients diagnosed with male erectile dysfunction with no major organic component; experiment: Multi-center, double-blind, randomized, placebo-controlled study: duration of erection and time to erection; type: in vivo, human; conditions: for Duration of Erection, Difference in Means: all attempts; for Time to Erection, Kaplan-Meier Median: all attempts (60 minutes if no erection); for Time to Erection, Kaplan-Meier Estimation of Median Time to Erection (Treatment Means): attempts when erection occurred, first eight attempts
Description: A multi-center, double-blind, randomized, placebo-controlled, three-armed study was conducted on 370 patients diagnosed with male erectile dysfunction with no major organic component. For each sequence, patients received placebo in one of the treatment periods, and a dose (2 mg, 4 mg, or 6 mg) of apomorphine in the other treatment period.
During treatment periods of the study, patients and their sexual partners were instructed to attempt intercourse a minimum of twice weekly. Each time the study drug was taken, a questionnaire was completed by the patient and by the partner and mailed to the study sponsor. The questionnaire recorded the date and time the study drug was taken, an evaluation of the erection, whether or not sexual intercourse had occurred, and satisfaction associated with each attempt. The patient also completed a diary which recorded the latency and duration of erections associated with the use of the study drug and antiemetic and concomitant medication usage and any adverse effects. If an erection occurred after administration to the patient of the study drug, the duration of erection and time-to-erection were recorded in the patient diary.
The data in Table 2 also indicate a dose-dependent, statistically significant difference of duration of erection, with a difference of almost 5 minutes between patients taking the 6 mg dose and those receiving placebo.
In those cases where no erection was achieved, a value of 60 minutes time-to-erection was used in the statistical analysis. The data in Table 3 show differences in latency periods between patients receiving apomorphine and those receiving placebo, but the differences probably reflect the inclusion in the data of 60 minute values for those cases in which no erection was achieved.

CN1CCc2cccc3c2[C@H]1Cc1ccc(O)c(O)c1-3 [Apomorphine, (R)-5,6,6a,7-tetrahydro-6-methyl-(4H)-dibenzo[de,g]quinoline-10,11-diol]
behaviors associated with sexual arousal [1]: exhibited lordosis, genital grooming and other behaviors typically associated with sexual arousal | fraction of maximum blood serum levels reached ([2]; 12 minutes following buccal administration): one-fifth to one-fourth | plasma apomorphine levels sufficient to cause a therapeutic effect ([2]; interpolation of plasma curves for 2, 4, 6 mg up to about 20 minutes after administration): less than 0.25 ng/mL | time to maximum plasma concentrations ([2]; sub-lingual administration (formulation used in Tables 1-4)): about 60 minutes | Duration of Erection, Difference in Means ([3]; 2 mg apomorphine vs placebo): 1.936 min | Duration of Erection, Difference in Mean ([3]; 2 mg apomorphine vs placebo, only attempts where erection was achieved): 1.811 min | Duration of Erection, Mean ([3]; 2 mg apomorphine, sublingual, all attempts (zero minutes if no erection)): 5.020 min | Time to Erection, Kaplan-Meier Median ([3]; 2 mg apomorphine): 42.17 min | Time to Erection, Kaplan-Meier Estimation of Median Time to Erection (Treatment Means) ([3]; 2 mg apomorphine): 11.33 min | Duration of Erection, Mean ([3]; 2 mg apomorphine, only attempts where erection was achieved): 10.82 min | Duration of Erection, Difference in Means ([3]; 4 mg apomorphine vs placebo): 3.578 min | Duration of Erection, Difference in Mean ([3]; 4 mg apomorphine vs placebo, only attempts where erection was achieved): 3.458 min | Duration of Erection, Mean ([3]; 4 mg apomorphine, sublingual, all attempts (zero minutes if no erection)): 6.903 min | Time to Erection, Kaplan-Meier Median ([3]; 4 mg apomorphine): 36.00 min | Time to Erection, Kaplan-Meier Estimation of Median Time to Erection (Treatment Means) ([3]; 4 mg apomorphine): 12.61 min | Duration of Erection, Mean ([3]; 4 mg apomorphine, only attempts where erection was achieved): 12.49 min | Duration of Erection, Difference in Means ([3]; 6 mg apomorphine vs placebo): 5.138 min | Duration of Erection, Difference in Mean ([3]; 6 mg apomorphine vs placebo, only attempts where erection was achieved): 4.925 min | Duration of Erection, Difference in Mean ([3]; 6 mg apomorphine vs placebo, only attempts where erection was achieved, listed as apomorphine): ~5 min | Duration of Erection, Mean ([3]; 6 mg apomorphine, sublingual, all attempts (zero minutes if no erection)): 8.393 min | Time to Erection, Kaplan-Meier Median ([3]; 6 mg apomorphine): 31.33 min | Time to Erection, Kaplan-Meier Estimation of Median Time to Erection (Treatment Means) ([3]; 6 mg apomorphine): 12.82 min | Duration of Erection, Mean ([3]; 6 mg apomorphine, only attempts where erection was achieved): 13.96 min | difference in median time-to-erection between drug and placebo ([3]; attempts successful in achieving an erection): no statistically significant difference | effect on duration of erection compared to placebo ([3]; doses tested (2, 4, 6 mg)): significant increase in the duration of erection
